Test results as given in patent publication US20160090556A1, “PRODUCTS COMPRISING MALODOR REDUCTION MATERIALS” (The Procter & Gamble Company, priority 2014, published 2016).

Experiment: Liquid dish neat product liquid-air partition coefficient
Assay type: physicochemical
Settings: for Comment Code: Log of liquid dish neat product liquid-air partition coefficient: code letters K, L

| SMILES | Log of liquid dish neat product liquid-air partition coefficient (Comment Code K/L) | Comment Code: Log of liquid dish neat product liquid-air partition coefficient |
| --- | --- | --- |
| C=CCCC(=O)C1=CCCC2(CCCC2)C1 [Material 1038] | K (Log of liquid dish neat product liquid-air partition coefficient greater than or equal to −7) | K (Log of liquid dish neat product liquid-air partition coefficient greater than or equal to −7) |
| CC(=O)OC(C)c1ccccc1 (centres unmarked) [Material 1041] | – | K (Log of liquid dish neat product liquid-air partition coefficient greater than or equal to −7) |
| CC1=CC2C(C(C)C)CCC(C)(O)C2CC1 (centres unmarked) [Material 1046] | K (Log of liquid dish neat product liquid-air partition coefficient greater than or equal to −7) | – |
| CC1=CC2C(C(C)C)CCC(C)(O)C2CC1 (centres unmarked) [Material 1047] | K (Log of liquid dish neat product liquid-air partition coefficient greater than or equal to −7) | – |
| CC(O)CCC1C(C)CCCC1(C)C (centres unmarked) [Material 1052] | – | K (Log of liquid dish neat product liquid-air partition coefficient greater than or equal to −7) |
| CCCC(O)CCC1C(C)CCCC1(C)C (centres unmarked) [Material 1063] | K (Log of liquid dish neat product liquid-air partition coefficient greater than or equal to −7) | – |
| CC(C)=CCC/C(C)=C/CC/C(C)=C/CO [Material 1065] | K (Log of liquid dish neat product liquid-air partition coefficient greater than or equal to −7) | – |
| CC/C=C\C/C=C/CCO [Material 1072] | K (Log of liquid dish neat product liquid-air partition coefficient greater than or equal to −7) | – |
| CC=CC(=O)C1C(C)=CCCC1(C)C (centres unmarked) [Material 1074] | – | K (Log of liquid dish neat product liquid-air partition coefficient greater than or equal to −7) |
| CC(C)=CCC/C(C)=C/CO [Material 1082] | K (Log of liquid dish neat product liquid-air partition coefficient greater than or equal to −7) | – |
| C/C=C/c1ccc(O)c(OC)c1 [Material 1084] | – | K (Log of liquid dish neat product liquid-air partition coefficient greater than or equal to −7) |
| CCCCCCCCCCCCCO [Material 1090] | K (Log of liquid dish neat product liquid-air partition coefficient greater than or equal to −7) | – |
| CC(=O)C1CC/C(C)=C\CC/C(C)=C\C/C=C/1C (centres unmarked) [Material 1095] | K (Log of liquid dish neat product liquid-air partition coefficient greater than or equal to −7) | – |
| CC1CC2CCC3C(C2O1)C(C)(C)C(C)C3(C)C (centres unmarked) [Material 1097] | K (Log of liquid dish neat product liquid-air partition coefficient greater than or equal to −7) | K (Log of liquid dish neat product liquid-air partition coefficient greater than or equal to −7) |
| CC1CC=CCCCCCCCC(=O)OCC1 (centres unmarked) [Material 1099] | K (Log of liquid dish neat product liquid-air partition coefficient greater than or equal to −7) | – |
| CCCCCCCCCCC=O [Material 1102] | K (Log of liquid dish neat product liquid-air partition coefficient greater than or equal to −7) | – |
| CCC=C(C)C(O)CCCCC (centres unmarked) [Material 1104] | K (Log of liquid dish neat product liquid-air partition coefficient greater than or equal to −7) | – |
| C=C(C)[C@@H]1CCC2=CCC[C@@H](C)[C@]2(C)C1 [Material 1105] | K (Log of liquid dish neat product liquid-air partition coefficient greater than or equal to −7) | – |
